What is called IC50 is the midpoint of a concentration-inhibition curve.

SMILES strings stand for the structures. Where two headings read alike, the source gives them in different places.

20 compounds from US20240262842A1, “SMALL MOLECULE INHIBITORS OF KRAS G12C MUTANT” (Merck Sharp & Dohme LLC, priority 2021, published 2024) can be followed below.

Assay [1] has as its target T1, interaction between GMPPNP-bound recombinant K-Ras4B G12C mutant protein and cRAF RAS-binding domain (cRAF-RBD) (Homo sapiens, UniProt P01116, G12C).
T1 construct: His-tag (N)
Briefly: Inhibitory activity on interaction between KRAS G12C and cRAF (Alpha technology). In a few lines: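 His-tagged K-Ras4B G12C (aa 1-169), GMPPNP-loaded, preincubated with compound 1 h at 25° C in pH 7.5 Tris buffer with MgCl2, TCEP, Tween 20. cRAF-RBD (aa 50-132) and Alpha reagents then added for 1.5 h; Alpha signal normalised to DMSO (0%) and GDP-bound KRAS (100%); IC50 from dose titration.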

The subject of a further assay is MIA PaCa-2 cells. Briefly: Growth inhibition activity on KRAS-G12C mutant cell line (CellTiter-Glo 3D). The format is cell-based, human. As to conditions: MIA PaCa-2, 3-day culture with compound. Put shortly: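 MIA PaCa-2 cells in RPMI1640 with 10% FBS, U-bottom wells, cultured 1 day before compound (0.2% DMSO final), then 3 days at 37 °C, 5% CO2. Viability by CellTiter-Glo 3D luminescence; growth inhibition versus untreated wells gives IC50 (nM).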
In general terms: In ATP-based viability assays light output follows the ATP content of the culture.

Where [2] appears, read: GMPPNP-bound KRAS G12C incubated with compound 25° C. 1 hour, Table 2-1, read-out: IC50.
[3] abbreviates: Homo sapiens, MIA PaCa-2, 72 h, Table 3-1.
The mark [4] stands for this setting: IC50, GMPPNP-bound KRAS G12C incubated with compound 25° C. 1 hour, Table 2-1.

T1 sequence (P01116 with tags, fused parts or gaps isoform P01116-2 G12C): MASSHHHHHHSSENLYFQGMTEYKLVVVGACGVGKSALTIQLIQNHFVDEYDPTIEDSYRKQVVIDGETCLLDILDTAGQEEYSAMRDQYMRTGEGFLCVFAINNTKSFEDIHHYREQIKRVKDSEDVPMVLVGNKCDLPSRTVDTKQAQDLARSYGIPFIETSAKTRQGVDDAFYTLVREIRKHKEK

For the compound `COCc1nc2c3c(c(OC)cc2n1C)-c1cccn2c(C(=O)c4cc(F)c(NC(=O)/C=C/CNC5(C)CC5)c(F)c4)cc(c12)CCN3C` [Example 174, (E)-N-(2,6-difluoro-4-(7-methoxy-10-(methoxymethyl)-9,12-dimethyl-9,12,13,14-tetrahydroimidazo[4″,5″:5′,6′]benzo[1′,2′:2,3]azocino[4,5,6-hi]indolizine-2-carbonyl)phenyl)-4-((1-methylcyclopropyl)amino)but-2-enamide], the IC50 is 0.00741 µM in assay [1] (setting [2]) and 0.00745 µM in the assay with MIA PaCa-2 cells (setting [3]).

Regarding `Cc1nc2c3c(c(C(F)(F)F)cc2n1C)-c1cccn2c(C(=O)c4cc(F)c(NC(=O)/C=C/CNC5COC5)c(F)c4)cc(c12)CCO3` [Example 51, (E)-N-(4-(9,10-dimethyl-7-(trifluoromethyl)-13,14-dihydro-9H-imidazo-[4″,5″:5′,6′]benzo[1′,2′: 2,3]oxocino[4,5,6-hi]-indolizine-2-carbonyl)-2,6-difluorophenyl)-4-(oxetan-3-ylamino)but-2-enamide], the IC50 was determined as 0.0454 µM in assay [1] (setting [2]) and 0.0159 µM in the assay with MIA PaCa-2 cells (setting [3]).

As to `Cc1c2cc(C(F)(F)F)c3c(c2nn1C)N(C)CCc1nc(C(=O)c2cc(F)c(NC(=O)/C=C/CN[C@H]4CCOC4)c(F)c2)n2cccc-3c12` (single isomer, unassigned) [Example 176], the results for the IC50 (in assay [1] (setting [2]); in the assay on MIA PaCa-2 cells (setting [3])) were 0.0674 µM and 0.0251 µM, respectively.

Regarding `Cc1cnc2c3c(c(C(F)(F)F)cn12)-c1cccn2c(C(=O)c4cc(F)c(NC(=O)/C=C/CNC5(C)COC5)c(F)c4)cc(c12)CCN3C` [Example 187, (E)-N-(4-(10,13-dimethyl-7-(trifluoromethyl)-14,15-dihydro-13H-imidazo[1″,2″:1′,2′]pyrido[3′,4′:2,3]azocino[4,5,6-hi]indolizine-2-carbonyl)-2,6-difluorophenyl)-4-((3-methyloxetan-3-yl)amino)but-2-enamide], the IC50 in assay [1] (setting [2]) worked out at 0.0364 µM; with MIA PaCa-2 cells (setting [3]), 0.039 µM.

For the compound `Cc1nc2c3c(c(C(F)(F)F)cc2n1C)-c1cccc2c(C(=O)c4cc(F)c(NC(=O)/C=C/CNC(C)(C)CF)c(F)c4)cn(c12)CCN3C` [Example 82, (E)-N-(2,6-difluoro-4-(8,9,11-trimethyl-6-(trifluoromethyl)-8,11,12,13-tetrahydro-imidazo[4″,5″:5′,6′]benzo-[1′,2′:5,6][1,4]diazocino-[7,8,1-hi]indole-2-carbon-yl)phenyl)-4-((1-fluoro-2-methylpropan-2-yl)-amino)but-2-enamide], the IC50 was 0.0249 µM in assay [1] (setting [4]) and 0.0299 µM in the assay with MIA PaCa-2 cells (setting [3]).

On to `Cc1cc2c(ncn2C)c2c1-c1cccn3c(C(=O)c4cc(F)c(NC(=O)/C=C/CNC56CCC(CC5)OC6)c(F)c4)cc(c13)CCN2C` [Example 134], for which the IC50 was found to be 0.031 µM in assay [1] (setting [2]) and 0.244 µM with MIA PaCa-2 cells (setting [3]).

With `COc1cc(N2CCCC2=O)cc2c1-c1cccn3c(C(=O)c4cc(F)c(NC(=O)/C=C/CN[C@H]5CCOC5)c(F)c4)cc(c13)CCN2C` [Example 191, (S,E)-N-(2,6-difluoro-4-(9-methoxy-5-methyl-7-(2-oxopyrrolidin-1-yl)-4,5-dihydro-3H-benzo-[2,3]azocino[4,5,6-hi]-indolizine-1-carbonyl)-phenyl)-4-((tetrahydro-furan-3-yl)amino)but-2-enamide], the IC50 is 0.0971 µM in assay [1] (setting [2]) and 0.167 µM with MIA PaCa-2 cells (setting [3]).

As for `Cc1cc2c(nc(C)n2C)c2c1-c1cccc3c(C(=O)c4cc(F)c(NC(=O)/C=C/CN5[C@@H]6CC[C@H]5[C@@H](O)C6)c(F)c4)cn(c13)CCN2C` (racemic) [Example 142], the IC50 in assay [1] (setting [4]) came to 0.0281 µM; in the assay on MIA PaCa-2 cells (setting [3]), 0.0855 µM.

`CN1CCc2cc(C(=O)c3cc(F)c(NC(=O)/C=C/CN4CC[C@H]4C(C)(C)O)c(F)c3)n3cccc(c23)-c2c(C(F)(F)F)cc3c(ncn3C)c21` (single isomer, unassigned) [Example 180]: the IC50 in assay [1] (setting [2]) was found to be 0.0493 µM; in the assay with MIA PaCa-2 cells (setting [3]) it was 0.0127 µM.

`CN1CCc2cc(C(=O)c3cc(F)c(NC(=O)/C=C/CN4CCC[C@H]4CO)c(F)c3)n3cccc(c23)-c2c(C(F)(F)F)cc3c(ncn3C)c21` [Example 227, (S,E)-N-(4-(9,12-dimeth-yl-7-(trifluoromethyl)-9,12,13,14-tetrahydro-imidazo[4″,5″:5′,6′]benzo-[1′,2′:2,3]azocino[4,5,6-hi]indolizine-2-carbonyl)-2,6-difluorophenyl)-4-(2-(hydroxymethyl)pyrrol-idin-1-yl)but-2-enamide]: the values for the IC50 (in assay [1] (setting [2]); with MIA PaCa-2 cells (setting [3])) were 0.034 µM and 0.0102 µM, respectively.

`Cc1cc2c(nc(C)n2C)c2c1-c1cccc3c(C(=O)c4cc(F)c(NC(=O)/C=C/CNC56CCC(CC5)OC6)c(F)c4)cn(c13)CCN2C` [Example 73, (E)-4-((2-oxabicyclo-[2.2.2]octan-4-yl)amino)-N-(2,6-difluoro-4-(6,8,9,11-tetramethyl-8,11,12,13-tetrahydro-imidazo[4″,5″:5′,6′]-benzo[1′,2′:5,6][1,4]-diazocino[7,8,1-hi]indole-2-carbonyl)phenyl)but-2-enamide]: the IC50 in assay [1] (setting [4]) was found to be 0.0469 µM; with MIA PaCa-2 cells (Table 3-1), 0.0216 µM.

Consider `Cc1nc2c3c(c(C(F)(F)F)cc2n1C)-c1cccc2c(C(=O)c4cc(F)c(NC(=O)/C=C/CNC5(C)COC5)c(F)c4)cn(c12)CC(=O)N3C` [Example 77], for which the values for the IC50 (in assay [1] (setting [4]); with MIA PaCa-2 cells (setting [3])) were 0.0804 µM and 0.054 µM, respectively.

Take `Cc1nnc2c3c(c(C(F)(F)F)cn12)-c1cccn2c(C(=O)c4cc(F)c(NC(=O)/C=C/CNC5(C)COC5)c(F)c4)cc(c12)CCN3C` (single isomer, unassigned) [Example 216, (E)-N-(4-(10,13-dimethyl-7-(trifluoromethyl)-14,15-dihydro-13H-[1,2,4]-triazolo[4″,3″:1′,2′]pyrido-[3′,4′:2,3]azocino[4,5,6-hi]indolizine-2-carbonyl)-2,6-difluorophenyl)-4-((3-methyloxetan-3-yl)-amino)but-2-enamide]: the IC50 in assay [1] (setting [2]) came out at 0.0576 µM; with MIA PaCa-2 cells (setting [3]) it was 0.0233 µM.

In the case of `Cc1cc2c(nc(C)n2C)c2c1-c1cccc3c(C(=O)c4cc(F)c(NC(=O)/C=C/CNC5CCOC5(C)C)c(F)c4)cn(c13)CCN2C` (stereo not shown) [Example 123, (E)-N-(2,6-difluoro-4-(6,8,9,11-tetramethyl-8,11,12,13-tetrahydro-imidazo[4″,5″:5′,6′]benzo-[1′,2′:5,6][1,4]diazocino-[7,8,1-hi]indole-2-carbon-yl)phenyl)-4-((2,2-dimeth-yltetrahydrofuran-3-yl)-amino)but-2-enamide], the results for the IC50 (in assay [1] (setting [4]); with MIA PaCa-2 cells (setting [3])) were 0.0418 µM and 0.035 µM, respectively.

Consider `Cn1cnc2c3c(c(C(F)(F)F)cc21)-c1cccn2c(C(=O)c4cc(F)c(NC(=O)/C=C/CN[C@@H]5[C@@H]6COC[C@@H]65)c(F)c4)cc(c12)CCO3` [Example 156, (E)-4-(((1R,5S,6s)-3-oxabicyclo[3.1.0]hexan-6-yl)amino)-N-(2,6-difluoro-4-(9-methyl-7-(trifluoromethyl)-13,14-dihydro-9H-imidazo-[4″,5″:5′,6′]benzo[1′,2′: 2,3]oxocino[4,5,6-hi]-indolizine-2-carbonyl)-phenyl)but-2-enamide], for which the IC50 came to 0.00806 µM in assay [1] (setting [2]) and 0.0103 µM in the assay on MIA PaCa-2 cells (setting [3]).

Regarding `Cc1nc2c3c(c(C(F)(F)F)cc2n1C)-c1cccn2c(C(=O)c4cc(F)c(NC(=O)/C=C/CNC5(C(=O)O)CCCCC5)c(F)c4)cc(c12)CCO3` [Example 40], the IC50 in assay [1] (GMPPNP-bound KRAS G12C incubated with compound 25° C. 1 hour, Table 2, read-out: IC50) was 4.7 µM; with MIA PaCa-2 cells (Homo sapiens, MIA PaCa-2, 72 h, Table 3) it was 1.6 µM.

Regarding `CO[C@H]1CC[C@H](NC/C=C/C(=O)Nc2c(F)cc(C(=O)c3cn4c5c(cccc35)-c3c(C(F)(F)F)cc5c(nc(C)n5C)c3N(C)CC4)cc2F)CC1` (single isomer, unassigned) [Example 55, (E)-N-(2,6-difluoro-4-(8,9,11-trimethyl-6-(tri-fluoromethyl)-8,11,12,13-tetrahydroimidazo[4″,5″: 5′,6′]benzo[1′,2′:5,6][1,4]-diazocino[7,8,1-hi]indole-2-carbonyl)phenyl)-4-(((1r,4r)-4-methoxycyclo-hexyl)amino)but-2-en-amide], the results for the IC50 (in assay [1] (setting [4]); in the assay with MIA PaCa-2 cells (setting [3])) were 0.0117 µM and 0.00336 µM, respectively.

In the case of `Cc1cc2c(nc(C)n2C)c2c1-c1cccn3c(C(=O)c4cc(F)c(NC(=O)/C=C/CNC5(C)CCOCC5)c(F)c4)cc(c13)CCN2C` [Example 57, (E)-N-(2,6-difluoro-4-(7,9,10,12-tetramethyl-9,12,13,14-tetrahydro-imidazo[4″,5″:5′,6′]benzo-[1′,2′:2,3]azocino[4,5,6-hi]indolizine-2-carbonyl)-phenyl)-4-((4-methyltetra-hydro-2H-pyran-4-yl)-amino)but-2-enamide], the IC50 in assay [1] (setting [2]) was found to be 0.0783 µM; in the assay with MIA PaCa-2 cells (setting [3]), 0.0685 µM.

On to `Cn1cnc2c3c(c(C(F)(F)F)cc21)-c1cccn2c(C(=O)c4cc(F)c(NC(=O)/C=C/CN5CCCOCC5)c(F)c4)cc(c12)CCO3` [Example 193, (E)-N-(2,6-difluoro-4-(9-methyl-7-(trifluorometh-yl)-13,14-dihydro-9H-imidazo[4″,5″:5′,6′]benzo-[1′,2′:2,3]oxocino[4,5,6-hi]indolizine-2-carbonyl)-phenyl)-4-(1,4-oxazepan-4-yl)but-2-enamide], for which the IC50 in assay [1] (setting [2]) stood at 0.0396 µM; with MIA PaCa-2 cells (setting [3]), 0.0695 µM.

Turning to `COCCn1c(COC)nc2c3c(c(OC)cc21)-c1cccn2c(C(=O)c4cc(F)c(NC(=O)/C=C/CNC5(C)CC5)c(F)c4)cc(c12)CCN3C` (single isomer, unassigned) [Example 244], the IC50 came to 0.0155 µM in assay [1] (setting [2]) and 0.01 µM in the assay with MIA PaCa-2 cells (setting [3]).
